Data from US20200397751A1, “Modulation of AMPA/kainate Receptors for the Treatment of Hypoglycemia” (priority 2017, published 2020).

Test system: isolated rodent islets
Assay: Glucagon secretion by isolated rodent islets in culture at varying glucose concentrations, 1 hr PAM treatment, glucagon by ELISA
Assay type: cell-based
Method: In an in vitro approach, isolated rodent islets maintained in culture in 96-well plates are treated for 1 hr with PAMs. Simultaneous with addition of PAMs, islets are exposed by media exchange to glucose concentrations ranging from hypoglycemic to hyperglycemic: e.g., 2 mM, 6 mM, 12 mM, 18 mM, etc. At the end of a 1 hour PAM treatment in varying glucose concentrations, glucagon levels in each treatment condition are then measured by ELISA.

[1] = euglycemic and hyperglycemic conditions

Row | Compound | amount of glucagon released into a culture media by isolated islets [1] | amount of glucagon released into a culture media by isolated islets (hypoglycemic conditions)
1 | CC(CNS(=O)(=O)C(C)C)c1ccc(-c2ccc(C#N)cc2)cc1 (stereo not drawn) [LY404187] | not | dose-dependently upregulate
2 | O=C1c2cccnc2OC[C@@H]2CCCN12 [ORG26576] | not | dose-dependently upregulate
3 | COc1ccc(C(=O)N2CCCC2=O)cc1 [aniracetam] | not | dose-dependently upregulate
